Data published in patent publication US20230210797A1, “PREVENTING AND TREATING HYPOGLYCEMIA” (DIAMYD MEDICAL AB, priority 2019, published 2023).
“Also recorded” adds a separate entry of the source.

Legend:
cortisol = experiment: Hypoglycemic clamp: plasma cortisol levels; type: in vivo, human; conditions: for Cortisol levels, Change from baseline, Mean (SD) / Cortisol levels, Change from baseline, Median (Min, Max) / Cortisol levels, Observed value, Mean (SD) / Cortisol levels, Observed value, Median (Min, Max): C-peptide undetectable
Procedure: (§1) In order to evaluate the counterregulatory hormone response to hypoglycemia, a hypoglycemic clamp will be performed. The Hypoglycemic Clamp must be performed according to the instructions in the Operations Manual. (Appendix 3)
(§2) The patient should: • Come to the study site following an overnight fast (>10 hours), i.e. the patient may not eat but is permitted to drink water • Not have taken the Remygen and, if applicable, Alprazolam dose in the morning • Not take short acting/direct acting insulin within 6 hours before the investigation. • The patient is allowed to take base-insulin day/night before, but not in the morning before the investigation.
(§3) Patients with CSII (insulin pump) must continue with their basal dose insulin, but not add bolus dose during the last 6 hours before the investigation.
(§4) If a patient has a blood sugar level <4 mmol/L in the morning of the scheduled visit, the patient is allowed to take dextrose tablets and then come to the study site. The patient is allowed to perform the investigation if the blood sugar level is >4 mmol/L.
(§5) In the dose-escalation part of the study, the patient will take study drug 30 min prior to start of the hypoglycemic clamp. In the main study, the study drug will instead be taken after finalization of the hypoglycemic clamp. Baseline blood samples will be obtained for glucose, glucagon, epinephrine, norepinephrine, growth hormone and cortisol. The clamp will then be initiated by an intravenous insulin infusion at a rate of 2 mU×kg^−1×min^−1. Glucose 100 mg/ml will then be administered in variable infusion rates to clamp the blood glucose concentration at 5.5 mmol/land then at 2.5 mmol/land kept stable for 30 min. Blood glucose will be evaluated repeatedly in order to find the optimal glucose infusion rate. Blood sampling to determined levels of counterregulatory hormones as described above will be performed at each of these target levels when a stable glucose concentration has been reached. The insulin infusion will thereafter be terminated and the patient is allowed to eat and will be observed until normoglycemia is achieved. If necessary, additional glucose administration will be given to allow blood glucose concentrations to normalize.
Only patients with c-peptide levels that were undetectable (in a standard assay, i.e. <0.01 nmol/L) are included (5 of 6) in the data below.
Plasma levels of glucagon, cortisol, epinephrine, growth hormone and glucose were measured at baseline (increased glucose in T1D subjects). Plasma glucose was first lowered to normoglycemic levels (5.5 mmol/L) and hormone levels monitored, and then to hypoglycemic levels (2.5 mmol/L) and hormone levels monitored. Difference was calculated as a measurement of the response to hypoglycemia.

growth hormone = experiment: Hypoglycemic clamp: plasma growth hormone levels; type: in vivo, human; conditions: for Growth hormone levels, change from baseline, Mean / Growth hormone levels, change from baseline, Median / Growth hormone levels, observed value, Mean / Growth hormone levels, observed value, Median: C-peptide undetectable, n=5
Procedure: as §1, §2, §3, §4, §5
Plasma glucose was first lowered to normoglycemic levels (5.5 mmol/L) and hormone levels monitored, and then to hypoglycemic levels (2.5 mmol/L) and hormone levels monitored. Difference was calculated as a measurement of the response to hypoglycemia.

[1] = Visit 5, 200 mg GABA per day, Event 2.5 mmol/L
[2] = Visit 5, 200 mg GABA per day, Event 5.5 mmol/L
[3] = Visit 5, 200 mg GABA per day, Event Baseline
[4] = Visit 5, 200 mg GABA per day, Event Diff 2.5-5.5 mmol/L
[5] = Visit 7, 600 mg GABA per day, Event 2.5 mmol/L
[6] = Visit 7, 600 mg GABA per day, Event 5.5 mmol/L
[7] = Visit 7, 600 mg GABA per day, Event Baseline
[8] = Visit 7, 600 mg GABA per day, Event Diff 2.5-5.5 mmol/L
[9] = Visit 9, 1200 mg GABA per day, Event 2.5 mmol/L
[10] = Visit 9, 1200 mg GABA per day, Event 5.5 mmol/L
[11] = Visit 9, 1200 mg GABA per day, Event Baseline
[12] = Visit 9, 1200 mg GABA per day, Event Diff 2.5-5.5 mmol/L
[13] = change in levels when clamping to 2.5 mmol/L from 5.5 mmol/L
[14] = Visit 5, 200 mg GABA per day, event 2.5 mmol/L
[15] = Visit 5, 200 mg GABA per day, event 5.5 mmol/L
[16] = Visit 5, 200 mg GABA per day, event Baseline
[17] = Visit 5, 200 mg GABA per day, event Diff 2.5-5.5 mmol/L
[18] = Visit 7, 600 mg GABA per day, event 2.5 mmol/L
[19] = Visit 7, 600 mg GABA per day, event 5.5 mmol/L
[20] = Visit 7, 600 mg GABA per day, event Baseline
[21] = Visit 7, 600 mg GABA per day, event Diff 2.5-5.5 mmol/L
[22] = Visit 9, 1200 mg GABA per day, event 2.5 mmol/L
[23] = Visit 9, 1200 mg GABA per day, event 5.5 mmol/L
[24] = Visit 9, 1200 mg GABA per day, event Baseline
[25] = Visit 9, 1200 mg GABA per day, event Diff 2.5-5.5 mmol/L

## NCCCC(=O)O [GABA, Gamma-amino butyric acid]
cortisol; [1]
  Cortisol levels, Change from baseline, Mean (SD): 49.6 nmol/L
  Cortisol levels, Change from baseline, Median (Min, Max): 40.0 nmol/L
  Cortisol levels, Observed value, Mean (SD): 356.2 nmol/L
  Cortisol levels, Observed value, Median (Min, Max): 334.0 nmol/L
cortisol; [2]
  Cortisol levels, Change from baseline, Mean (SD): -141.8 nmol/L
  Cortisol levels, Change from baseline, Median (Min, Max): -179.0 nmol/L
  Cortisol levels, Observed value, Mean (SD): 198.8 nmol/L
  Cortisol levels, Observed value, Median (Min, Max): 176.0 nmol/L
cortisol; [3]
  Cortisol levels, Change from baseline, Mean (SD): -198.8 nmol/L
  Cortisol levels, Change from baseline, Median (Min, Max): -196.0 nmol/L
  Cortisol levels, Observed value, Mean (SD): 215.0 nmol/L
  Cortisol levels, Observed value, Median (Min, Max): 213.0 nmol/L
cortisol; [4]
  Cortisol levels, Change from baseline, Mean (SD): 191.4 nmol/L
  Cortisol levels, Change from baseline, Median (Min, Max): 125.0 nmol/L
  Cortisol levels, Observed value, Mean (SD): 157.4 nmol/L
  Cortisol levels, Observed value, Median (Min, Max): 162.0 nmol/L
cortisol; [5]
  Cortisol levels, Change from baseline, Mean (SD): 51.8 nmol/L
  Cortisol levels, Change from baseline, Median (Min, Max): 36.0 nmol/L
  Cortisol levels, Observed value, Mean (SD): 358.4 nmol/L
  Cortisol levels, Observed value, Median (Min, Max): 360.0 nmol/L
cortisol; [6]
  Cortisol levels, Change from baseline, Mean (SD): -157.0 nmol/L
  Cortisol levels, Change from baseline, Median (Min, Max): -185.0 nmol/L
  Cortisol levels, Observed value, Mean (SD): 183.6 nmol/L
  Cortisol levels, Observed value, Median (Min, Max): 166.0 nmol/L
cortisol; [7]
  Cortisol levels, Change from baseline, Mean (SD): -222.6 nmol/L
  Cortisol levels, Change from baseline, Median (Min, Max): -217.0 nmol/L
  Cortisol levels, Observed value, Mean (SD): 191.2 nmol/L
  Cortisol levels, Observed value, Median (Min, Max): 189.0 nmol/L
cortisol; [8]
  Cortisol levels, Change from baseline, Mean (SD): 208.8 nmol/L
  Cortisol levels, Change from baseline, Median (Min, Max): 141.0 nmol/L
  Cortisol levels, Observed value, Mean (SD): 174.8 nmol/L
  Cortisol levels, Observed value, Median (Min, Max): 194.0 nmol/L
cortisol; [9]
  Cortisol levels, Change from baseline, Mean (SD): 6.6 nmol/L
  Cortisol levels, Change from baseline, Median (Min, Max): 29.0 nmol/L
  Cortisol levels, Observed value, Mean (SD): 313.2 nmol/L
  Cortisol levels, Observed value, Median (Min, Max): 285.0 nmol/L
cortisol; [10]
  Cortisol levels, Change from baseline, Mean (SD): -117.2 nmol/L
  Cortisol levels, Change from baseline, Median (Min, Max): -115.0 nmol/L
  Cortisol levels, Observed value, Mean (SD): 223.4 nmol/L
  Cortisol levels, Observed value, Median (Min, Max): 193.0 nmol/L
cortisol; [11]
  Cortisol levels, Change from baseline, Mean (SD): -196.0 nmol/L
  Cortisol levels, Change from baseline, Median (Min, Max): -191.0 nmol/L
  Cortisol levels, Observed value, Mean (SD): 217.8 nmol/L
  Cortisol levels, Observed value, Median (Min, Max): 226.0 nmol/L
cortisol; [12]
  Cortisol levels, Change from baseline, Mean (SD): 123.8 nmol/L
  Cortisol levels, Change from baseline, Median (Min, Max): 83.0 nmol/L
  Cortisol levels, Observed value, Mean (SD): 89.8 nmol/L
  Cortisol levels, Observed value, Median (Min, Max): -10.0 nmol/L
cortisol; [13]
  Counter regulatory response of Cortisol, effect of GABA treatment: increased
cortisol; clamped to 5.5 mmol/L
  Normoglycemic levels of Cortisol, effect of GABA treatment: decrease
cortisol; dose escalation part, oral GABA, type 1 diabetes patients with undetectable c-peptide
  Baseline (no clamp) Cortisol levels, effect of GABA treatment: downregulated; also recorded: decrease
Growth hormone; [14]
  Growth hormone levels, change from baseline, Mean: 4.560 µg/L
  Growth hormone levels, change from baseline, Median: 3.400 µg/L
  Growth hormone levels, observed value, Mean: 11.632 µg/L
  Growth hormone levels, observed value, Median: 4.000 µg/L
Growth hormone; [15]
  Growth hormone levels, change from baseline, Mean: -0.802 µg/L
  Growth hormone levels, change from baseline, Median: 0.000 µg/L
  Growth hormone levels, observed value, Mean: 2.110 µg/L
  Growth hormone levels, observed value, Median: 0.070 µg/L
Growth hormone; [16]
  Growth hormone levels, change from baseline, Mean: 0.475 µg/L
  Growth hormone levels, change from baseline, Median: 0.035 µg/L
  Growth hormone levels, observed value, Mean: 0.630 µg/L
  Growth hormone levels, observed value, Median: 0.080 µg/L
Growth hormone; [17]
  Growth hormone levels, change from baseline, Mean: 5.362 µg/L
  Growth hormone levels, change from baseline, Median: 4.000 µg/L
  Growth hormone levels, observed value, Mean: 9.522 µg/L
  Growth hormone levels, observed value, Median: 3.440 µg/L
Growth hormone; [18]
  Growth hormone levels, change from baseline, Mean: 10.068 µg/L
  Growth hormone levels, change from baseline, Median: 9.000 µg/L
  Growth hormone levels, observed value, Mean: 17.140 µg/L
  Growth hormone levels, observed value, Median: 11.700 µg/L
Growth hormone; [19]
  Growth hormone levels, change from baseline, Mean: -1.812 µg/L
  Growth hormone levels, change from baseline, Median: -0.340 µg/L
  Growth hormone levels, observed value, Mean: 1.100 µg/L
  Growth hormone levels, observed value, Median: 0.160 µg/L
Growth hormone; [20]
  Growth hormone levels, change from baseline, Mean: 2.098 µg/L
  Growth hormone levels, change from baseline, Median: 0.090 µg/L
  Growth hormone levels, observed value, Mean: 2.253 µg/L
  Growth hormone levels, observed value, Median: 0.140 µg/L
Growth hormone; [21]
  Growth hormone levels, change from baseline, Mean: 11.880 µg/L
  Growth hormone levels, observed value, Mean: 16.040 µg/L
  Growth hormone levels, observed value, Median: 10.820 µg/L
Growth hormone; [22]
  Growth hormone levels, change from baseline, Mean: 7.388 µg/L
  Growth hormone levels, change from baseline, Median: 7.900 µg/L
  Growth hormone levels, observed value, Mean: 14.460 µg/L
  Growth hormone levels, observed value, Median: 14.000 µg/L
Growth hormone; [23]
  Growth hormone levels, change from baseline, Mean: -1.468 µg/L
  Growth hormone levels, change from baseline, Median: -0.210 µg/L
  Growth hormone levels, observed value, Mean: 1.444 µg/L
  Growth hormone levels, observed value, Median: 0.170 µg/L
Growth hormone; [24]
  Growth hormone levels, change from baseline, Median: 0.100 µg/L
  Growth hormone levels, observed value, Mean: 0.461 µg/L
  Growth hormone levels, observed value, Median: 0.170 µg/L
Growth hormone; [25]
  Growth hormone levels, change from baseline, Mean: 8.856 µg/L
  Growth hormone levels, change from baseline, Median: 6.900 µg/L
  Growth hormone levels, observed value, Mean: 13.016 µg/L
  Growth hormone levels, observed value, Median: 8.600 µg/L
Growth hormone; [13]
  Counter regulatory response of Growth hormone, effect of GABA treatment: increased
Growth hormone; clamped to 5.5 mmol/L
  Normoglycemic levels of Growth hormone, effect of GABA treatment: decrease
